The subject of test [1] is gastric acid secretion. Briefly: Inhibitory effect on gastric acid secretion, perfused stomach preparation of anesthetized rat (histamine stimulated). Type of test: in vivo, Wistar strain rats. The note with it: intravenous; for ED100: Rattus norvegicus, cumulative, histamine 30 μg/kg/min, read-out: Dose for complete inhibition; for Duration: time from complete inhibition until pH of perfusate became 4. The protocol:
(i) Perfused stomach preparation of anesthetized rat [according to M. N. Ghosh and H. O. Schild: Brit. J. Pharmacol. 13, 54 (1958)]
Wistar strain rats (male, 200 to 250 g) starved for 18 hours were anesthetized with urethane and then subjected to laparotomy, after which the forestomach region of the stomach of each rat was incised. The whole interior of the stomach was sufficiently washed with physiological saline, and the cut edges were sutured. A silicon tube was inserted into the stomach to a length of about 5 mm from the duodenum side and fixed. Subsequently, the stomach was perfused with physiological saline adjusted to a pH of about 10 with an aqueous sodium hydroxide solution at a constant rate (1 ml/min) through an oral sonde, and the change in pH of the perfusate which had flowed out through the silicone tube was continuously recorded. During the perfusion, histamine (30 μg/kg/min) was continuously injected, as an agent for stimulating gastric acid secretion, through the femoral vein at a rate of 0.3 ml/min. Each drug was intravenously administered when the acid secretion became almost constant (pH 3.3±0.2), and cumulatively administered when the inhibition of acid secretion at each dose reached a plateau.
The number of experiments was three for each dose.

For test [2], the system named is gastric acid secretion. Briefly: Inhibitory effect on gastric acid secretion, pylorus ligation method (histamine). In kind it is in vivo, Wistar strain rats. To be noted: Rattus norvegicus, oral, histamine 25 mg/kg s.c., read-out: Inhibition percentage (gastric acid secretion). The protocol: Five to six Wistar strain rats (male, 190 to 230 g) per group were starved for 35 hours, after which each drug was orally administered, and after 2 hours, the pylorus of each rat was ligated under ether anesthesia. […] After 3 hours, each rat was killed, after which the cardiac portion was ligated, and the stomach was removed. After 1 ml of distilled water was injected into the stomach, the gastric juice was collected by centrifugation and its volume was measured. The acidity of the gastric juice was measured by titrating 1 ml of the gastric juice with a 0.1N aqueous sodium hydroxide solution, taking pH 7.0 as the end-point. Physiological saline was administered to a control group.
The inhibition percentage of gastric acid secretion was determined from the following equation: [formula]

Test [3] deals with Stress ulcer induced by water-immersion. The experiment in a line: Anti-ulcer activity: Stress ulcer induced by water-immersion. Type of test: in vivo, Wistar rats. To be noted: for Inhibition percentage / ED50: oral; for Potency ratio: Cimetidine = 1; for ED50: Rattus norvegicus, 15 h, water-immersion stress ulcer, read-out: ID50 (the source's name). On the procedure: (iii) Stress ulcer induced by water-immersion
An experiment was carried out according to the method of Takagi et al. [K. Takagi et al., Jap.
Six Wistar rats (male, 230 to 280 g) per group were starved for 24 hours, after which each drug was orally administered. After 30 minutes, the rats were placed in stress cage, immersed in water at 23° C. to the depth of xiphoid, and allowed to stand therein for 15 hours. Thereafter, the stomach of each rat was removed and then fixed with 3% formalin, after which the areas of the ulcers formed were measured under the binocular stereoscopic microscope (10×), and the sum total of the areas was taken as the ulcer index. To a control group was administered 0.5% Tween 80 physiological saline.
The inhibition percentage was determined from the following equation: [formula]

The subject of test [4] is Reserpine ulcer. The experiment in a line: Anti-ulcer activity: Reserpine ulcer. In kind it is in vivo, Wistar strain rats. The note with it: oral; for ED50: Rattus norvegicus, 18 h, reserpine ulcer, read-out: ID50 (the source's name). On the procedure: An experiment was carried out according to the method of Adami et al. [E. Adami et al., Arch. int.
Ten Wistar strain rats (male, 180 to 200 g) per group were starved for 30 hours, after which each drug was orally administered, and after 1 hour, reserpine was injected subcutaneously at a dose of 10 mg/kg. After 18 hours, the stomach was removed and fixed with 3% formalin, and thereafter the lengths of the ulcers formed in the stomach were measured with callipers. The measured values were converted to the scores described below, and the sum total of the scores was taken as the ulcer index.
That is to say, 1 to 5 pin point ulcers are scored as 1, 6 or more pin point ulcers are scored as 2, ulcers of 1 mm or less in length are scored as 1, ulcers of 1 to 2 mm in length are scored as 2, ulcers of 2 to 4 mm in length are scored as 4, and ulcers of 4 mm or more in length are scored as 8.
To a control group was administered 0.5% Tween 80 physiological saline. The inhibition percentage was determined from the following equation: [formula]

Test [5] deals with Indomethacin ulcer. The experiment in a line: Anti-ulcer activity: Indomethacin ulcer. In kind it is in vivo, Wistar strain rats. The note with it: for Potency ratio: Cimetidine = 1; for ED50: 5 h, Indomethacin ulcer, read-out: ID50 (the source's name). On the procedure:
Six Wistar strain rats (male, 200 to 250 g) per group were starved for 24 hours, after which each drug was orally administered, and after 30 minutes, Indomethacin was injected subcutaneously at a dose of 30 mg/kg. After 5 hours, each rat was killed, and the stomach was removed and fixed with 3% formalin, after which the lengths of ulcers formed in the stomach was measured under the binocular stereoscopic microscope (10×), and the sum total of the lengths was taken as the ulcer index. To a control group was administered 0.5% Tween 80 physiological saline. The inhibition percentage was determined from the following equation: [formula]

Setting [6] is: Rattus norvegicus, oral, read-out: Inhibition percentage.

Consider `CN(C)Cc1ccc(CSCCNC(=C[N+](=O)[O-])NCC(O)c2ccc(Cl)cc2)o1` (stereo not shown) [compound 5, N-[2-(4-chlorophenyl)-2-hydroxyethyl]-N'-{2-[[5-(dimethylamino)methyl-2-furyl]methylthio]ethyl}-2-nitro-1,1-ethenediamine], for which, in test [1], the ED100 was 0.1 mg/kg and the Duration was 192 min. Moreover, in test [2], the inhibition in vivo at 3 mg/kg came out at 80%.

`CN(C)Cc1ccc(CSCCNC(=C[N+](=O)[O-])NCC(O)c2cccs2)o1` (stereo not shown) [compound 6]: in test [1], the ED100 worked out at 0.1 mg/kg and the Duration is listed as 132 min. In test [2], the inhibition in vivo at 3 mg/kg is 67% and the inhibition in vivo at 10 mg/kg was 93%.

Regarding `Cc1ccsc1C(O)CNC(=C[N+](=O)[O-])NCCSCc1ccc(CN(C)C)o1` (stereo not shown) [compound 7, N-{2-[[5-(dimethylamino)methyl-2-furyl]methylthio]ethyl}-N'-[2-hydroxy-2-(3-methyl-2-thienyl)ethyl]-2-nitro-1,1-ethenediamine], in test [1], the ED100 amounted to 0.1 mg/kg and the Duration was 227 min. Moreover, the inhibition in vivo at 3 mg/kg in test [2] stood at 88%.

With `O=[N+]([O-])C=C(NCCCOc1cccc(CN2CCCCC2)c1)NCC(O)c1ccccc1` (stereo not drawn) [compound 11, N-(β-hydroxyphenethyl)-2-nitro-N'-[3-(3-piperidinomethylphenoxy)propyl]-1,1-ethenediamine], in test [1], the ED100 was found to be 0.05 mg/kg and the Duration was found to be 123 min. Moreover, in test [2], the inhibition in vivo at 3 mg/kg came to 79% and the inhibition in vivo at 10 mg/kg worked out at 81%.

As to `O=[N+]([O-])C=C(NCCCOc1cccc(CN2CCCCC2)c1)NCC(O)c1ccc(O)cc1` (stereo not shown) [compound 12, N-[2-hydroxy-2-(4-hydroxyphenyl)ethyl]-2-nitro-N'-[3-(3-piperidinomethylphenoxy)propyl]-1,1-ethenediamine], in test [1], the ED100 is 0.15 mg/kg and the Duration is recorded as more than 240 min. In addition, in test [2], the inhibition in vivo at 3 mg/kg worked out at 87%.

`O=[N+]([O-])C=C(NCCCOc1cccc(CN2CCCCC2)c1)NCC(O)c1cccc(O)c1` (stereo not shown) [compound 13, N-[2-hydroxy-2-(3-hydroxyphenyl)ethyl]-2-nitro-N'-[3-(3-piperidinomethylphenoxy)propyl]-1,1-ethenediamine]: in test [1], the ED100 is 0.1 mg/kg and the Duration is recorded as more than 240 min. Further, the inhibition in vivo at 1 mg/kg in test [2] turned out to be 51%.

Consider `COc1ccc(C(O)CNC(=C[N+](=O)[O-])NCCCOc2cccc(CN3CCCCC3)c2)cc1` (stereo not shown) [compound 14, N-[2-hydroxy-2-(4-methoxyphenyl)ethyl]-2-nitro-N'-[3-(3-piperidinomethylphenoxy)propyl]-1,1-ethenediamine], for which, in test [1], the ED100 stood at 0.15 mg/kg and the Duration amounted to 158 min. Further, the inhibition in vivo at 1 mg/kg in test [2] stood at 61%.

`O=[N+]([O-])C=C(NCCCOc1cccc(CN2CCCCC2)c1)NCC(O)c1ccc(Cl)cc1` (stereo not shown) [compound 16, N-[2-(4-chlorophenyl)-2-hydroxyethyl]-2-nitro-N'-[3-(3-piperidinomethylphenoxy)propyl]-1,1-ethenediamine]: in test [1], the ED100 was found to be 0.1 mg/kg and the Duration was 304 min. Besides, the inhibition in vivo at 3 mg/kg in test [2] worked out at 89%.

Turning to `Cc1ccsc1C(O)CNC(=C[N+](=O)[O-])NCCCOc1cccc(CN2CCCCC2)c1` (stereo not shown) [compound 18, N-[2-hydroxy-2-(3-methyl-2-thienyl)ethyl]-2-nitro-N'-[3-(3-piperidinomethylphenoxy)propyl]-1,1-ethenediamine], in test [1], the ED100 came to 0.3 mg/kg and the Duration is on record as 247 min. Further, the inhibition in vivo at 3 mg/kg in test [2] came out at 87%.

`Cc1cccc(C(O)CNC(=C[N+](=O)[O-])NCCSCc2cc(C)c(CN(C)C)s2)c1` (stereo not shown) [compound 29, N-{2-[[5-(dimethylamino)methyl-4-methyl-2-thienyl]methylthio]ethyl}-N'-[2-hydroxy-2-(3-methylphenyl)ethyl]-2-nitro-1,1-ethenediamine]: the Inhibition percentage amounted to 37% in test [3] (1 mg/kg), 78% in test [3] (3 mg/kg), 21% in test [4] (1 mg/kg) and 41% in test [4] (3 mg/kg). The Potency ratio in test [3] was 11.1; in test [5] it was 31.3. In addition, the ED50 in test [3] came out at 1.4 mg/kg; in test [4], 4.7 mg/kg; in test [5] (Rattus norvegicus, oral), 0.88 mg/kg. The ED100 in test [1] is 0.3 mg/kg. The same compound registered a Duration in test [1] of more than 177 min. Moreover, the inhibition in vivo at 1 mg/kg in test [2] is 56%; in test [5] (setting [6]), 57%. For the same compound, in test [5] (Rattus norvegicus, 0.3 mg/kg, oral, read-out: Inhibition percentage), the inhibition in vivo at 0.3 mg/kg is 8%.

`Cc1cc(CSCCNC(=C[N+](=O)[O-])NCC(O)c2cccc(Br)c2)sc1CN(C)C` (stereo not shown) [compound 32, N-[2-(3-bromophenyl)-2-hydroxyethyl]-N'-{2-[[5-(dimethylamino)methyl-4-methyl-2-thienyl]methylthio]ethyl}-2-nitro-1,1-ethenediamine]: the ED100 in test [1] turned out to be 0.3 mg/kg. Moreover, in test [1], the Duration was more than 220 min. For the same compound, the Inhibition percentage in test [4] (1 mg/kg) turned out to be 38%; in test [4] (3 mg/kg), 55%. Besides, the ED50 in test [4] was determined as 2.15 mg/kg; in test [5] (Rattus norvegicus, oral), 1.81 mg/kg. For the same compound, the inhibition in vivo at 1.5 mg/kg in test [2] (1.5 mg/kg) stood at 60%. Also, in test [5], the Potency ratio was determined as 15.2. In addition, the inhibition in vivo at 1 mg/kg in test [5] (setting [6]) came to 24%. The inhibition in vivo at 3 mg/kg in test [5] (Rattus norvegicus, 3 mg/kg, oral, read-out: Inhibition percentage) is 72%.

For the compound `Cc1cc(CSCCNC(=C[N+](=O)[O-])NCC(O)c2cccc(C(F)(F)F)c2)sc1CN(C)C` (stereo not shown) [compound 33, N-{2-[[5-(dimethylamino)methyl-4-methyl-2-thienyl]methylthio]ethyl}-N'-[2-hydroxy-2-(3-trifluoromethylphenyl)ethyl]-2-nitro-1,1-ethenediamine], the Inhibition percentage in test [3] (1 mg/kg) is reported as 32%; in test [3] (3 mg/kg) it was 75%; in test [4] (1 mg/kg), 42%; in test [4] (3 mg/kg) it was 68%. Further, in test [3], the Potency ratio was found to be 9.8. For the same compound, the ED50 was 1.58 mg/kg in test [3] and 1.4 mg/kg in test [4]. Further, the ED100 in test [1] was found to be 0.3 mg/kg. In test [1], this compound gave a Duration of more than 240 min. In addition, in test [2], the inhibition in vivo at 1 mg/kg worked out at 55%.

On to `Nc1ccc(C(O)CNC(=C[N+](=O)[O-])NCCCOc2cccc(CN3CCCCC3)c2)cc1` (stereo not shown) [compound 45, N-[2-(4-aminophenyl)-2-hydroxyethyl]-2-nitro-N'-[3-(3-piperidinomethylphenoxy)propyl]-1,1-ethenediamine], for which the inhibition in vivo at 1 mg/kg in test [2] turned out to be 65%.

Source of the values: patent US4923882A, “Novel amine derivatives, salts thereof and an anti-ulcer agent containing the same” (Toyama Chemical Co., Ltd., priority 1982, dated 1990).
